Assays:
[1] = tested on: hEAAT2 promoter; test: flhEAAT2Prom-luc and deletion mutant luciferase reporter assay in PHFA treated with modulators; assay type: cell-based, human
Description: (§1) FIG. 4A-D. Effect of modulators of hEAAT2 activity on hEAAT2 expression and hEAAT2 promoter activity in PHFA. A. A Northern analysis of hEAAT2 and GAPDH mRNA expression following treatment with EGF (30 ng/ml), TGF-α (30 ng/ml), dbcAMP (200 μM, bromo-cAMP (100 μM) or TNF-α (200 U/ml) for 7 days. B. Nuclear run-on assays determining the relative rates of hEAAT2 and GAPDH transcription as a function of 7-day treatment with the same concentrations of the indicated agents. C. A time course of mRNA expression of hEAAT2 and GAPDH following treatment with EGF, bromo-cAMP or TNF-α (same concentrations as in A.). D. Fold luciferase activity in PHFA transfected with flhEAAT2Prom-luc or various deletion mutants of hEAAT2 and non-transfected controls treated with the indicated compounds for four days.
Construction of hEAAT2 Promoter Deletion Mutants and Performance of the Luciferase Assays. 5′-deletion mutants of the hEAAT2 promoter were made with exonuclease III digestion using the Erase-A-Base System (Promega) as described for the PEG-3 promoter (Su et al., 2000, Oncogene 19(30):3411-3421). The flhEAAT2Prom-luc and flhEAAT2Prom-luc deletion mutants were cloned into the pGL3-basic luciferase reporter vector (Promega) and luciferase reporter assays were performed as described (Su et al., 2000, Oncogene 19(30):3411-3421; Su et al., 2001, Nucleic Acids Res 29(8):1661-1671), except that instead of using lipofectamine, which was toxic to PHFA, the calcium phosphate precipitation transfection technique was used (Babiss et al., 1986, Proc Natl Acad Sci USA 83(7):2167-2171).
Preferential Expression of the hEAAT2 Promoter in PHFA and Deletion Analysis of the hEAAT2 Promoter. hEAAT2 is expressed in brain-derived cells, mainly astrocytes (Tanaka et al., 1997, Science 276(5319):1699-1702; Anderson et al., 2000, Glia 32(1):1-14). Experiments were performed to confirm hEAAT2 promoter activity in normal human astrocytes and to determine expression levels in other cell types (FIG. 2A). Primary early passage and established human normal and tumor cell lines were co-transfected with a putative full-length ˜2.5 kb hEAAT2 promoter, a SacII fragment extending from bp −2426 to bp +44, was cloned into the pGL3-basic vector (Promega), where it drove expression of the firefly luciferase (luc) gene, and a pSV-β-galactosidase expression plasmid. Relative fold expression of a full length hEAAT2 promoter-luciferase (flhEAAT2Prom-luc) construct was determined as described (Su et al., 2000, Oncogene 19(30):3411-3421; Su et al., 2001, Nucleic Acids Res 29(8):1661-1671), and activity versus transfection with a pSV-β-galactosidase plasmid was calculated as described (Su et al., 2000, Oncogene 19(30):3411-3421; Su et al., 2001, Nucleic Acids Res 29(8):1661-1671) to equalize for differences in transfection efficiency.
To examine further the relationship between hEAAT2 and treatment with the various glutamate transporter modulators, transient transfection assays were performed in PHFA using the flhEAAT2Prom-luc constructs and various deletions thereof (FIG. 4D). […] In the case of dbcAMP, promoter activity was enhanced by ˜3-fold.

[2] = tested on: hEAAT2 expression; test: hEAAT2 expression in PHFA, readout not specified; assay type: cell-based, human
[3] = tested on: hEAAT2 transcription; test: Nuclear run-on assay of hEAAT2 transcription in PHFA; assay type: cell-based, human; settings: 7-day treatment
Description: as §1
Primer Extension Analysis and Nuclear Run-on Assays. Primer extension assays were performed as described (Su et al., 2000, Oncogene 19(30):3411-3421). A primer with the sequence 5′-[…]-3′ (SEQ ID NO:6) complementary to the 5′ UTR of the hEAAT2 cDNA was used for this assay. Nuclear run-on assays were performed as described (Su et al., 1997, Proc Natl Acad Sci USA 94(17):9125-9130).
To examine whether stimulation of hEAAT2 expression involves transcriptional changes, nuclear run-on assays were performed.

[4] = tested on: hEAAT2 mRNA; test: Northern blot of hEAAT2 mRNA in PHFA treated with modulators; assay type: cell-based, human
Description: as §1
(§2) Northern and Western Blotting Assays. Total cellular RNA was isolated by the guanidinium/phenol extraction method and Northern blotting was performed as described (Huang et al., 2001, Oncogene 20(48):7051-7063; Su et al., 2000, Oncogene 19(30):3411-3421; Su et al., 2001, Nucleic Acids Res 29(8):1661-1671). Western blotting assays were performed as described (Su et al., 1998, Proc Natl Acad Sci USA 95(24):14400-14405; Su et al., 2002, Oncogene 21(22):3592-602).
Positive and Negative Regulation of hEAAT2 Transcription, Promoter Activity and mRNA Levels in PHFA. Several enhancers of GLT-1 expression in rat astrocytes have been identified, including epidermal growth factor (EGF), transforming growth factor-α (TGF-α) and dibutyryl cyclic AMP (dbcAMP) (Swanson et al., 1997, J Neurosci 17(3):932-940; Zelenaia et al., 2000, Mol Pharmacol 57(4):667-678). Based on these considerations, experiments were performed to determine if these agents similarly modify human hEAAT2 expression in PHFA. Consistent with previous observations in rat astrocytes, 7-day treatment with EGF, TGF-α, and two analogs of cAMP, dbcAMP and bromo-cAMP, stimulated hEAAT2 mRNA expression in PHFA, whereas TNF-α decreased expression (FIG. 4B). […] In contrast, TNF-α decreased expression by 48 h (FIG. 4C).

[5] = tested on: hEAAT2 protein; test: Western blot of EAAT2 protein in PHFA; assay type: cell-based, human
Description: FIG. 5A-E. Effect of pharmacological inhibitors on hEAAT2 promoter activity, and mRNA and protein expression in PHFA following various treatment protocols. A. hEAAT2 promoter activity in PHFA, either untreated (−) or treated with EGF (30 ng/ml), in the absence (−) or presence (+) of KT5720 (5 μM), AG1478 (1 μM), PDTC (100 μM), wortmannin (WRT) (100 nM) or PD98049 (PD) (50 μM). B. hEAAT2 promoter activity in PHFA, either untreated (−) or treated with bromo-cAMP (250 μM) in the absence (−) or presence (+) of KT5720 (5 μM), AG1478 (1 μM), PDTC (100 μM), wortmannin (WRT) (100 nM) or PD98049 (PD) (50 μM). C. hEAAT2 promoter activity in PHFA, either untreated (−) or treated with TNF-α (200 U/ml), in the absence (−) or presence (+) of KT5720 (5 μM), AG1478 (1 μM), PDTC (100 μM), wortmannin (WRT) (100 nM) or PD98049 (PD) (50 μM). D. The effect of the various treatment protocols on hEAAT2 and GAPDH mRNA levels. Upper panel presents relative hEAAT2 RNA expression versus GAPDH expression relative to control untreated or treated samples based on scanning of autoradiograms. Lower panel, actual Northern blots. E. The effect of the various treatment protocols on EAAT2 and ACTIN protein levels. Upper panel presents relative EAAT2 protein expression versus ACTIN expression relative to control untreated or treated samples based on scanning of autoradiograms. Individual experiments were performed 3 times using triplicate samples and S.D. from the mean is presented.
as §2

[6] = tested on: glutamate uptake by PHFA; settings: Fine et al., 1996; cited from earlier work

With TNF-α the “hEAAT2 promoter activity (in words)” value [1] was “inhibited”, the hEAAT2 expression [2] was “decreased” and the “relative rate of transcription of hEAAT2 RNA compared with GAPDH” value [3] was “decreased”. For the same substance, the “hEAAT2 mRNA expression” value ([4]; 7-day treatment, EGF 30 ng/ml, TGF-α 30 ng/ml, dbcAMP 200 μM, bromo-cAMP 100 μM, TNF-α 200 U/ml) was “decreased”, the “time by which hEAAT2 mRNA expression was changed” value ([4]; time course, bromo-cAMP enhanced, TNF-α decreased) was no more than 48 h and the hEAAT2 protein levels [5] was “decreased”. For the same substance, the “glutamate uptake by PHFA” value [6] was “inhibits”.
